Data reported in patent US7141604B2, “Citalopram for the treatment of elevated blood pressure” (Egis Gyógyszergyár Rt., priority 2002, dated 2006).
Like-named read-outs stand apart in the source and are kept apart here.

Experiments:
[1] = tested on: hypertensive patients; experiment: Study III: patients with high blood pressure but without anxiety or depression; assay type: in vivo; settings: for outcome in 55 non-responder patients, antihypertensive added to citalopram 20 mg/day: after six weeks, betaloc oral 100 mg/day (40 patients) or captopril 2×12.5 mg/day (15 patients) in addition to citalopram
Protocol: In the test 102 hypertensive patients participated who complained of the following symptoms: attack like headache, dizziness, trembling, tremor, sweating, fear of death, sensation of heat and cold, and gastrointestinal complaints. The patients thought that their complaints were the consequence of panic attacks, but this was not supported by their psychiatric anamnesis in an unambiguous manner.
The patients were orally treated with citalopram in a dose of 5 mg/day on the first week, 10 mg/day on the second week and 20 mg/day on the third week.
From the 55 non-responder patients 40 individuals (39%) received betaloc in an oral dose of 100 mg/day and 15 patients (15%) received captopril in a dose of 2×12.5 mg/day, in addition to the administration of 20 mg/day of citalopram.

[2] = tested on: hypertonic patients; experiment: Study I: antihypertensive effect of citalopram in hypertonic patients with panic disorder; assay type: in vivo; settings: for outcome in remaining 84 patients, antihypertensive added to citalopram 20 mg/day: after 6 weeks, oral metoprolol 2×50 mg/day (64 patients) or captopril 2×12.5 mg/day (20 patients) in addition to citalopram
Protocol: 254 patients participated in the study. All patients were hypertonic. In this group of hypertonics there were 120 patients suffering from panic disorder and agoraphobia, 70 patients suffering from panic disorder with agoraphobia and with depression, and 64 patients suffering from panic disorder with agoraphobia and with social phobia and/or with obsessive compulsive disorder (OCD).
The patients received citalopram in a dose of 5 mg/day on the first week, 10 mg/day on the second week and 20 mg/day on the third and fourth week.
The citalopram treatment of the remaining 84 patients was continued with a weekly oral dosage of 20 mg/day. From said 84 individuals 64 patients were additionally treated orally with metoprolol for 3 weeks in a dose of 2×50 mg/day and 20 patients received captopril in a dose of 2×12.5 mg/day.

[3] = tested on: patients having unstable high blood pressure; settings: human, in vivo, po
Protocol: In the study 13 patients having unstable high blood pressure were used who suffered from different anxiety disorders and depression.
Out of these patients 3 suffered from panic disorder, 1 from obsessive compulsive disorder and 9 from panic disorder with depression. On the beginning of treatment with the following antidepressants the patients were normotensive.
The patients were treated orally with 40 mg/day of paroxetine, or 100 mg/day of sertraline, or 20 mg/day of fluoxetine, or 150 mg/day of fluvoxamine. After 6 months 60% of the patients and after a period of 12–30 months 40% of the patients became hypertensive beside the normalization of their psychiatric state.
Thereafter the above mentioned antidepressants were substituted with citalopram. The oral dose of citalopram was 5 mg/day on the first week, 10 mg/day on the second week and 20 mg/day on the third week.

[4] = in the course of treatment of depression; cited from earlier work
[5] = after three weeks, oral citalopram 5/10/20 mg/day, of 102 hypertensive patients
[6] = after 4 weeks treatment, citalopram 5/10/20/20 mg/day, of 254 hypertonic patients

COCCc1ccc(OCC(O)CNC(C)C)cc1 (centres unmarked) [betaloc]
outcome in 55 non-responder patients, antihypertensive added to citalopram 20 mg/day [1]: complete recovery

COCCc1ccc(OCC(O)CNC(C)C)cc1 (centres unmarked) [metoprolol]
outcome in remaining 84 patients, antihypertensive added to citalopram 20 mg/day [2]: complete recovery

CN[C@H]1CC[C@@H](c2ccc(Cl)c(Cl)c2)c2ccccc21 [sertraline]
patients who became hypertensive [3]: 40% | patients who became hypertensive ([3]; 6 months): 60%

Fc1ccc([C@@H]2CCNC[C@H]2COc2ccc3c(c2)OCO3)cc1 [paroxetine]
patients who became hypertensive [3]: 40% | patients who became hypertensive ([3]; 6 months): 60%

CN(C)CCCC1(c2ccc(F)cc2)OCc2cc(C#N)ccc21 (centres unmarked) [citalopram, 1-(3-dimethylamino-propyl)-1-(4-fluoro-phenyl)-1,3-dihydro-5-isobenzofurance-carbonitrile]
patients recovered and became normotensive [1, 5]: 47 patients | share of patients recovered and became normotensive [1, 5]: 46% | undesired side effect given in information leaflet [4]: hypotension may occur | patients with complete recovery (became normotensive, symptoms of anxiety and affective disorders disappeared) [2, 6]: 170 patients | share of patients with complete recovery (became normotensive) [2, 6]: 67%

CNCCC(Oc1ccc(C(F)(F)F)cc1)c1ccccc1 (centres unmarked) [fluoxetine]
patients who became hypertensive [3]: 40% | patients who became hypertensive ([3]; 6 months): 60%

COCCCC/C(=N\OCCN)c1ccc(C(F)(F)F)cc1 [fluvoxamine]
patients who became hypertensive [3]: 40% | patients who became hypertensive ([3]; 6 months): 60%

C[C@H](CS)C(=O)N1CCC[C@H]1C(=O)O [captopril]
outcome in 55 non-responder patients, antihypertensive added to citalopram 20 mg/day [1]: complete recovery | outcome in remaining 84 patients, antihypertensive added to citalopram 20 mg/day [2]: complete recovery
